pIC50: −log10 of the molar value.

Experimental findings from patent US20130143927A1, “COMPOUNDS THAT MODULATE INTRACELLULAR CALCIUM” (CalciMedica, Inc., priority 2011, published 2013) are described below.

For assay [1], the target named is T1, recombinant human STIM1 and Orai1 (HEK-293 cells) (Homo sapiens, UniProt Q96D31).
T1 construct: expressed in transfected cells; host or cells: HEK-293 cells stably expressing both proteins
Description: Fluorescence-based assay of store-operated calcium entry in Orai1/STIM1 stable cells. As to conditions: fluo-4, 50% inhibition of Peak-Basal signal. Type of assay: cell-based. As for the experimental part:
A. Fluorescence-based Assay of Store-Operated Calcium Entry in Orai1/STIM1 Stable Cells.
Cells stably expressing recombinant human STIM1 and Orai1 are generated by transfecting a human Orai1 expression plasmid (pcDNA3.1-Orai1-cmyc) into HEK-293 cells stably overexpressing human STIM1 (Roos et al. 2005 JCB 169(3): 435-445). Colonies of cells stably expressing both STIM1 and Orai1 proteins are selected and then subcloned by limiting dilution. Cells were cultured at 37° C./6% CO2 in complete medium with 10% FBS and appropriate selection markers.
The day prior to performing the assay Orai1/STIM1 stable cells are plated in 50 μL of complete medium at 90-95% confluence in a 384 well plate. Cells are grown at 37° C./6% CO2 overnight. On the day of the assay, 1.5 μM fluo-4-AM (Invitrogen) in complete medium is added to the cells, which are then incubated for 1 hour at RT. Cells are washed once in Ca^2+-free HBSS (Hank's buffered saline solution) and 35 μl of Ca^2+-free HBSS is added to each well. Test compounds are added to wells in a 10 μL Ca^2+-free HBSS solution, prepared at 4.5× the desired final concentration, and incubated for 30 minutes at RT. The initial baseline fluorescence signal is then measured with a FLIPR^384 (Molecular Devices) plate reader. Calcium entry is initiated by adding 5 μl of 10×CaCl2 (10 mM) in HBSS, and changes in cellular fluorescence are measured with the FLIPR^384 plate reader. In each well, the magnitude of the fluorescence signal as a result of calcium entry into the cell is determined by calculating the difference between the peak fluorescence signal measured after calcium addition and the initial baseline fluorescence signal (designated Peak-Basal). IC50 values are typically calculated as the concentration that inhibited 50% of the Peak-Basal signal.

Assay [2] relates to RBL-2H3 cells. Description: Fluorescence-based assay of store-operated calcium entry in RBL-2H3 cells. Format: cell-based. Conditions: Rattus norvegicus, store-operated calcium entry after thapsigargin, Fluo-4, 50% inhibition of Upslope. As for the experimental part: B. Fluorescence-based Assay of Store-Operated Calcium Entry in RBL-2H3 Cells. Cells:
RBL-2H3 cells are obtained from ATCC and maintained in complete medium with 10% FBS at 37° C./6% CO2.
The day prior to performing the assay, RBL-2H3 cells are plated in 50 μL of complete medium in a 384 well plate. Cells are grown at 37° C./6% CO2 overnight and grow to 50-60% confluence by the next day. On the assay day, 1.5 μM Fluo-4-AM dye (Invitrogen) in complete medium is added and incubated for 1 hour at RT. Cells are washed twice in Ca^2+-free HBSS buffer and 35 μL Ca^2+-free HBSS buffer is added to each well. 10 μL of a test compound prepared in a Ca^2+-free HBSS solution at 4.5× of the desired concentration is added to a well and incubated for 5 minutes at RT. 10 μL of thapsigargin prepared in a Ca^2+-free HBSS solution at 5.5× of the desired concentration (5.5 uM) is added to each well and incubated for an additional 25 minutes. The initial baseline fluorescence signal is measured with a FLIPR^384 (Molecular Devices) plate reader. 5 μL of 12× calcium in HBSS (12 mM) is added and changes in cellular fluorescence are measured with the FLIPR^384 plate reader. In each well, the change in the fluorescent signal as a function of time due to calcium entry into the cell is determined by calculating the difference between the fluorescent signal measured 7 seconds after calcium addition and the initial baseline fluorescence signal at time zero (t=0). This parameter is designated Upslope. The IC50 value is calculated as the concentration at which 50% of the Upslope is inhibited.

T1 sequence (Q96D31 whole entry): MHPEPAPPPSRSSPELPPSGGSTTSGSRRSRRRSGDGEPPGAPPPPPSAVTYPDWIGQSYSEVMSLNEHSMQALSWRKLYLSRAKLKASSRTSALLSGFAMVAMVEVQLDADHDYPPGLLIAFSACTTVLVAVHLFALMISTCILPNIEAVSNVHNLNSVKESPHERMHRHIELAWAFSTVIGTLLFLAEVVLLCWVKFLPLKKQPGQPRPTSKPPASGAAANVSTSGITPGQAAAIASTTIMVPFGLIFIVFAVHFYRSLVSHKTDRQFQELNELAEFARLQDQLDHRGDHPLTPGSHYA

As usually defined, the pIC50 is the negative decadic logarithm of the IC50, by convention in mol/L. With `Cn1nc(C(F)(F)F)cc1-c1cnc(NCc2c(F)cncc2F)s1` [Compound 11, N-((3,5-difluoropyridin-4-yl)methyl)-5-(1-methyl-3-(trifluoromethyl)-1H-pyrazol-5-yl)thiazol-2-amine], the negative-log IC50 (pIC50) in assay [1] is under 5.92; in assay [2] it was 5.92 to 6.22.
As to `Cn1nc(C(F)(F)F)cc1-c1ccc(NCc2ccccc2F)s1` [Compound 34, N-(2-fluorobenzyl)-5-(1-methyl-3-(trifluoromethyl)-1H-pyrazol-5-yl)thiophen-2-amine], the pIC50 in assay [1] was under 5.92; in assay [2], 5.92 to 6.22.
The corresponding values for `Cc1cc2c(cc1-c1cnc(NCc3c(F)cncc3F)s1)OC(F)(F)O2` [Compound 14, 5-(2,2-difluoro-6-methylbenzo[d][1,3]dioxol-5-yl)-N-((3,5-difluoropyridin-4-yl)methyl)thiazol-2-amine] are 5.92 to 6.22 and over 6.22.
`Cc1cc2c(cc1-c1ccc(NCc3c(F)cccc3F)s1)OC(F)(F)O2` [Compound 36, 5-(2,2-difluoro-6-methylbenzo[d][1,3]dioxol-5-yl)-N-(2,6-difluorobenzyl)thiophen-2-amine]: the results for the pIC50 in assay [1] and in assay [2] were 5.92 to 6.22 and under 5.92, respectively.
The corresponding values for `Cn1nc(C(F)(F)F)cc1-c1cnc(NCc2c(F)cccc2F)s1` [Compound 2, N-(2,6-difluorobenzyl)-5-(1-methyl-3-(trifluoromethyl)-1H-pyrazol-5-yl)thiazol-2-amine] are 5.92 to 6.22 and over 6.22.
The corresponding values for `Cn1nc(C(F)(F)F)cc1-c1cnc(NCc2ccccc2F)s1` [Compound 4, N-(2-fluorobenzyl)-5-(1-methyl-3-(trifluoromethyl)-1H-pyrazol-5-yl)thiazol-2-amine] are over 6.22 and over 6.22.
The corresponding values for `Cn1nc(C(F)(F)F)cc1-c1cnc(OCc2c(F)cccc2F)s1` [Compound 32, 2-[(2,6-difluorophenyl)methoxy]-5-[1-methyl-3-(trifluoromethyl)pyrazol-5-yl]-1,3-thiazole] are over 6.22 and over 6.22.
With `Cc1cc2c(cc1-c1cnc(OCc3c(F)cccc3F)s1)OC(F)(F)O2` [Compound 31], the negative-log IC50 (pIC50) in assay [1] and in assay [2] was over 6.22 each time.
For `Cn1nc(C(F)(F)F)cc1-c1ccc(NCc2c(F)cccc2F)s1` [Compound 35, N-(2,6-difluorobenzyl)-5-(1-methyl-3-(trifluoromethyl)-1H-pyrazol-5-yl)thiophen-2-amine], the results for the negative logarithm of the IC50 (pIC50) in assay [1] and in assay [2] were 5.92 to 6.22 and over 6.22, respectively.
